Results on 25 compounds are retold here after patent US10040781B2, “Tank-binding kinase inhibitor compounds” (Gilead Sciences, Inc., priority 2014, dated 2018).

One test deals with IKKε (Homo sapiens (Human), UniProt Q14164). Description: IKKε TR-FRET enzymatic assay. In kind it is biochemical. The note with it: read-out: IKKe IC50. Background: Time-resolved FRET reads energy transfer from a long-lived donor to a nearby acceptor.
A further test addresses hJAK2 (Homo sapiens (Human), UniProt O60674). Description: hJAK2 LANCE TR-FRET enzymatic assay. The note with it: read-out: JAK2 IC50. In kind it is biochemical.
The target of a further test is TBK1 (Homo sapiens (Human), UniProt Q9UHD2). Description: TBK1 TR-FRET enzymatic assay.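 Further: phosphorylation of a biotinylated Ser/Thr peptide by purified full-length recombinant TBK1, read by TR-FRET after 240 min at 25 °C, IC50 is the geometric mean of at least four runs.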
TBK1, sequence (Q9UHD2 whole entry): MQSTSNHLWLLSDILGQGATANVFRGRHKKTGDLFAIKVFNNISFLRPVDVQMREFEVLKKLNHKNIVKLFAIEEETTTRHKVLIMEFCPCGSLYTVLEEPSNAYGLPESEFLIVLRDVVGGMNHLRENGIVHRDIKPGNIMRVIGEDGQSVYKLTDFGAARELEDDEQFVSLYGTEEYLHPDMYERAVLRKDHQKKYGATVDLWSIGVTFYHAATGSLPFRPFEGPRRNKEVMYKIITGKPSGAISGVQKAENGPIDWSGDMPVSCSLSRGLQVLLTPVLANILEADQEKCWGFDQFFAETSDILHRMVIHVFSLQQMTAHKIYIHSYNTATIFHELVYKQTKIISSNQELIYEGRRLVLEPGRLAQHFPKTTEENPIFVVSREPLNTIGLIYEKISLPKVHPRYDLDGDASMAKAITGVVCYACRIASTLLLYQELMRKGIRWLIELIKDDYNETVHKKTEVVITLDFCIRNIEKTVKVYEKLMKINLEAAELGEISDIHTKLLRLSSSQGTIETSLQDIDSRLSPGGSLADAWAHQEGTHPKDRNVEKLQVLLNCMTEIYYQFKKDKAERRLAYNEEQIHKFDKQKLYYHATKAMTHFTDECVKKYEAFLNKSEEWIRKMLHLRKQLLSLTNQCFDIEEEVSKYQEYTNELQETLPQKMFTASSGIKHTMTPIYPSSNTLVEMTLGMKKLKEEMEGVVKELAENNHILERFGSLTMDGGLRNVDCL

IKKε, sequence (Q14164 whole entry): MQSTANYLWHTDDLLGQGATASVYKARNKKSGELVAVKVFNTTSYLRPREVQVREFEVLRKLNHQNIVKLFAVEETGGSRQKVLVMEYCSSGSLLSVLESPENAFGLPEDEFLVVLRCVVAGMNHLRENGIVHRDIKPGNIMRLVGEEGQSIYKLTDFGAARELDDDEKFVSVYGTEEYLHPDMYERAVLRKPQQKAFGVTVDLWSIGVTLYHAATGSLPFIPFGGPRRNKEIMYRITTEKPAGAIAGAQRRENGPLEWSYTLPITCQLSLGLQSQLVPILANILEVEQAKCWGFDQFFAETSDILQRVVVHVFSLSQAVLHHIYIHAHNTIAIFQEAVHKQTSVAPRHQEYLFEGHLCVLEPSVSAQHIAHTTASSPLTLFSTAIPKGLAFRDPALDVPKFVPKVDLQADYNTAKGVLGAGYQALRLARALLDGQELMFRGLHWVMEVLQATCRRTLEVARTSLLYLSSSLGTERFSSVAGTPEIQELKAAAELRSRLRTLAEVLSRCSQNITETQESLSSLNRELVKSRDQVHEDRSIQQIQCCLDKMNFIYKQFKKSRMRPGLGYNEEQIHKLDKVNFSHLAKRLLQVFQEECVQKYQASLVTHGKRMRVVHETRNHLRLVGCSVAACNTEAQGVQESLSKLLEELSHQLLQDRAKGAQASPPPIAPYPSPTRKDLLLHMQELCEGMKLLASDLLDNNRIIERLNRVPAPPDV
hJAK2, sequence (O60674 whole entry): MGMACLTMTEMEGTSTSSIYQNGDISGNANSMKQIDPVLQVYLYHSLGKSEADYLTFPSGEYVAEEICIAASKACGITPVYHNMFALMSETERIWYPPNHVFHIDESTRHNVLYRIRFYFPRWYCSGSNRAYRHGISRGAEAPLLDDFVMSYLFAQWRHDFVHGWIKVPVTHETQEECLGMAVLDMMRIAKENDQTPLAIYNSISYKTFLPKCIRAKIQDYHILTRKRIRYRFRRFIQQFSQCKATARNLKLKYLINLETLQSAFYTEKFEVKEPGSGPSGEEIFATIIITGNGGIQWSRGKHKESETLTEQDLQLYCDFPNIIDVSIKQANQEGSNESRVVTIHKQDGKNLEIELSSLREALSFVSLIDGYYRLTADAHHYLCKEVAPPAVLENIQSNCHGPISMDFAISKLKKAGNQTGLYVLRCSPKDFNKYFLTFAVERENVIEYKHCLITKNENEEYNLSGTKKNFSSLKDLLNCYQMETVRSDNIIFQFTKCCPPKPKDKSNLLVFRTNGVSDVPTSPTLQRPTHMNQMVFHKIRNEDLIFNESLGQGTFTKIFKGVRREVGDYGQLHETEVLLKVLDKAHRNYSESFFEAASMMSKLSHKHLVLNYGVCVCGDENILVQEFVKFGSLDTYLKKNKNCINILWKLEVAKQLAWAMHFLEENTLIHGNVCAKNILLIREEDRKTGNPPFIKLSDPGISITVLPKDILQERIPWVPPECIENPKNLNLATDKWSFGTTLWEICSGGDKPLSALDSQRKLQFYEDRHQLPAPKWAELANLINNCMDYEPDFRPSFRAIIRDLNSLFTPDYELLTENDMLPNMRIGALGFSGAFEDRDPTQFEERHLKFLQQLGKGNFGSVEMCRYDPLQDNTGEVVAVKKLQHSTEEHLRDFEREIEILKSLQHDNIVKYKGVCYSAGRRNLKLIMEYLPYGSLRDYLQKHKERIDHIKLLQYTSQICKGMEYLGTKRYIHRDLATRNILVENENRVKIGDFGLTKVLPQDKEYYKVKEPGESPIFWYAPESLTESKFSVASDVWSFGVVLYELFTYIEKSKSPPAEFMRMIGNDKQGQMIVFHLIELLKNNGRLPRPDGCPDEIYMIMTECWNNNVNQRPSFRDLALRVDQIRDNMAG

Broadly, the IC50 is the midpoint of a concentration-inhibition curve. For `N#Cc1cc(-c2ncnc(Nc3ccc(N4CCN(C5COC5)CC4)cc3)n2)ccc1OC1CCOCC1` [Example 67, 5-(4-((4-(4-(oxetan-3-yl)piperazin-1-yl)phenyl)amino)-1,3,5-triazin-2-yl)-2-((tetrahydro-2H-pyran-4-yl)oxy)benzonitrile], the IC50 on IKKε was 6 nM; on hJAK2, 802 nM; against TBK1 it was 2 nM.

Consider `N#Cc1cc(-c2ncnc(Nc3ccc(C(=O)C(F)(F)F)cc3)n2)ccc1OC1CCOCC1` [Example 68, 2-((tetrahydro-2H-pyran-4-yl)oxy)-5-(4-((4-(2,2,2-trifluoroacetyl)phenyl)amino)-1,3,5-triazin-2-yl)benzonitrile], for which the IC50 at IKKε was found to be 11 nM; on hJAK2, 415 nM; against TBK1 it was 2 nM.

Consider `N#Cc1cc(-c2ncnc(Nc3cccc(N4CCN(C5COC5)CC4)c3)n2)ccc1OC1CCOCC1` [Example 69, 5-(4-((3-(4-(oxetan-3-yl)piperazin-1-yl)phenyl)amino)-1,3,5-triazin-2-yl)-2-((tetrahydro-2H-pyran-4-yl)oxy)benzonitrile], for which the values for the IC50 on IKKε, at hJAK2 and against TBK1 were 4 nM, more than 1000 nM and 6 nM, respectively.

For `N#Cc1cc(-c2ncnc(Nc3ccc(N4CCN(C5COC5)CC4)cc3)n2)ccc1OC1CCN(C(=O)C2(O)CC2)CC1` [Example 70, 2-((1-(1-hydroxycyclopropanecarbonyl)piperidin-4-yl)oxy)-5-(4-((4-(4-(oxetan-3-yl)piperazin-1-yl)phenyl)amino)-1,3,5-triazin-2-yl)benzonitrile], the results for the IC50 at IKKε, at hJAK2 and against TBK1 were 70 nM, 918 nM and 28 nM, respectively.

For `COc1cc(Nc2ncnc(-c3ccc(OC4CCOCC4)c(C#N)c3)n2)ccc1C(=O)N1CCN(C2COC2)CC1` [Example 71, 5-(4-((3-methoxy-4-(4-(oxetan-3-yl)piperazine-1-carbonyl)phenyl)amino)-1,3,5-triazin-2-yl)-2-((tetrahydro-2H-pyran-4-yl)oxy)benzonitrile], the IC50 at IKKε is 10 nM; at hJAK2, more than 1000 nM; on TBK1, 2 nM.

For `COc1ccc(Nc2ncnc(-c3ccc(OC4CCOCC4)c(C#N)c3)n2)cc1` [Example 72, 5-(4-((4-methoxyphenyl)amino)-1,3,5-triazin-2-yl)-2-((tetrahydro-2H-pyran-4-yl)oxy)benzonitrile], the IC50 at IKKε is 21 nM; at hJAK2 it was more than 1000 nM; on TBK1 it was 5 nM.

For the compound `Cn1nccc1Nc1ncnc(-c2ccc(OC3CCOCC3)c(C#N)c2)n1` [Example 73, 5-(4-((1-methyl-1H-pyrazol-5-yl)amino)-1,3,5-triazin-2-yl)-2-((tetrahydro-2H-pyran-4-yl)oxy)benzonitrile], the values for the IC50 on IKKε, at hJAK2 and against TBK1 were 202 nM, more than 1000 nM and 90 nM, respectively.

For the compound `N#Cc1cc(-c2ncnc(Nc3cc(F)c(N4CCN(C5COC5)CC4)c(F)c3)n2)ccc1OC1CCOCC1` [Example 74, 5-(4-((3,5-difluoro-4-(4-(oxetan-3-yl)piperazin-1-yl)phenyl)amino)-1,3,5-triazin-2-yl)-2-((tetrahydro-2H-pyran-4-yl)oxy)benzonitrile], the results for the IC50 at IKKε, on hJAK2 and at TBK1 were 12 nM, more than 1000 nM and 3 nM, respectively.

Consider `N#Cc1cc(-c2ncnc(Nc3ccc(C(=O)NC4COC4)cc3)n2)ccc1OC1CCOCC1` [Example 75, 4-((4-(3-cyano-4-((tetrahydro-2H-pyran-4-yl)oxy)phenyl)-1,3,5-triazin-2-yl)amino)-N-(oxetan-3-yl)benzamide], for which the figures for the IC50 on IKKε, on hJAK2 and against TBK1 were 12 nM, 899 nM and 3 nM, respectively.

Regarding `CN1CCC(c2ccc(Nc3ncnc(-c4ccc(OC5CCOCC5)c(C#N)c4)n3)cc2)CC1` [Example 76, 5-(4-((4-(1-methylpiperidin-4-yl)phenyl)amino)-1,3,5-triazin-2-yl)-2-((tetrahydro-2H-pyran-4-yl)oxy)benzonitrile], the IC50 is 3 nM at IKKε, 575 nM at hJAK2 and 1 nM against TBK1.

In the case of `COc1ccc(Nc2ncnc(-c3ccc(OC4CCOCC4)c(C#N)c3)n2)cn1` [Example 77, 5-(4-((6-methoxypyridin-3-yl)amino)-1,3,5-triazin-2-yl)-2-((tetrahydro-2H-pyran-4-yl)oxy)benzonitrile], the IC50 is 55 nM at IKKε, more than 1000 nM at hJAK2 and 21 nM on TBK1.

`COc1cccc(Nc2ncnc(-c3ccc(OC4CCOCC4)c(C#N)c3)n2)c1` [Example 78, 5-(4-((3-methoxyphenyl)amino)-1,3,5-triazin-2-yl)-2-((tetrahydro-2H-pyran-4-yl)oxy)benzonitrile]: the IC50 was 17 nM at IKKε, more than 1000 nM on hJAK2 and 6 nM against TBK1.

In the case of `N#Cc1cc(-c2ncnc(Nc3ccccc3)n2)ccc1OC1CCOCC1` [Example 79, 5-(4-(phenylamino)-1,3,5-triazin-2-yl)-2-((tetrahydro-2H-pyran-4-yl)oxy)benzonitrile], the IC50 at IKKε was 19 nM; on hJAK2 it was more than 1000 nM; at TBK1, 8 nM.

With `N#Cc1cc(-c2ncnc(Nc3ccc(N4CCOCC4)cc3)n2)ccc1O[C@@H]1CCNC1` [Example 80], the IC50 was found to be 37 nM on IKKε, 389 nM at hJAK2 and 19 nM against TBK1.

With `N#Cc1cc(-c2ncnc(Nc3cccc(N4CCOCC4)c3)n2)ccc1O[C@@H]1CCNC1` [Example 82, (R)-5-(4-((3-morpholinophenyl)amino)-1,3,5-triazin-2-yl)-2-(pyrrolidin-3-yloxy)benzonitrile], the IC50 on IKKε worked out at 53 nM; at hJAK2, 641 nM; on TBK1 it was 94 nM.

Regarding `CC(C)NC(=O)c1ccc(Nc2ncnc(-c3ccc(O[C@@H]4CCN(C(=O)CO)C4)c(C#N)c3)n2)cc1` [Example 83, (R)-4-((4-(3-cyano-4-((1-(2-hydroxyacetyl)pyrrolidin-3-yl)oxy)phenyl)-1,3,5-triazin-2-yl)amino)-N-isopropylbenzamide], the IC50 came to 14 nM at IKKε, 604 nM at hJAK2 and 8 nM on TBK1.

With `CC(C)NC(=O)c1ccc(Nc2ncnc(-c3ccc(O[C@@H]4CCNC4)c(C#N)c3)n2)cc1` [Example 84, (R)-4-((4-(3-cyano-4-(pyrrolidin-3-yloxy)phenyl)-1,3,5-triazin-2-yl)amino)-N-isopropylbenzamide], the IC50 stood at 166 nM at IKKε, 805 nM on hJAK2 and 72 nM against TBK1.

With `CN1CCN(c2ccc(Nc3ncnc(-c4ccc(O[C@@H]5CCN(C(=O)CO)C5)c(C#N)c4)n3)cc2)CC1` [Example 86, (R)-2-((1-(2-hydroxyacetyl)pyrrolidin-3-yl)oxy)-5-(4-((4-(4-methylpiperazin-1-yl)phenyl)amino)-1,3,5-triazin-2-yl)benzonitrile], the IC50 turned out to be 4 nM on IKKε, 459 nM on hJAK2 and 8 nM on TBK1.

`N#Cc1cc(-c2ncnc(Nc3ccc(N4CCN(C5COC5)CC4)cc3)n2)ccc1F` [Example 87, 2-Fluoro-5-(4-((4-(4-(oxetan-3-yl)piperazin-1-yl)phenyl)amino)-1,3,5-triazin-2-yl)benzonitrile]: the IC50 on IKKε was more than 1000 nM; on hJAK2, more than 1000 nM; on TBK1 it was 853 nM.

`N#Cc1cc(-c2ncnc(Nc3ccc(N4CCN(C5COC5)CC4)cc3)n2)ccc1O[C@@H]1CCN(C(=O)CCO)C1` [Example 89, (R)-2-((1-(3-hydroxypropanoyl)pyrrolidin-3-yl)oxy)-5-(4-((4-(4-(oxetan-3-yl)piperazin-1-yl)phenyl)amino)-1,3,5-triazin-2-yl)benzonitrile]: the results for the half-maximal inhibitory concentration (IC50) on IKKε, on hJAK2 and against TBK1 were 52 nM, 359 nM and 16 nM, respectively.

On to `N#CCC(=O)N1CC[C@@H](Oc2ccc(-c3ncnc(Nc4ccc(N5CCN(C6COC6)CC5)cc4)n3)cc2C#N)C1` [Example 90, (R)-2-((1-(2-cyanoacetyl)pyrrolidin-3-yl)oxy)-5-(4-((4-(4-(oxetan-3-yl)piperazin-1-yl)phenyl)amino)-1,3,5-triazin-2-yl)benzonitrile], for which the IC50 on IKKε is 37 nM; on hJAK2, 292 nM; on TBK1, 7 nM.

Take `N#Cc1cc(-c2ncnc(Nc3ccc(N4CCN(C5COC5)CC4)cc3)n2)ccc1O[C@@H]1CCN(C(=O)C2COC2)C1` [Example 92, (R)-5-(4-((4-(4-(oxetan-3-yl)piperazin-1-yl)phenyl)amino)-1,3,5-triazin-2-yl)-2-((1-(oxetane-3-carbonyl)pyrrolidin-3-yl)oxy)benzonitrile]: the 50% inhibitory concentration (IC50) at IKKε is 197 nM; at hJAK2 it was more than 1000 nM; on TBK1, 45 nM.

For the compound `N#Cc1cc(-c2ncnc(Nc3ccc(N4CCN(C5COC5)CC4)cc3)n2)ccc1O[C@@H]1CCNC1` [Example 93, (R)-5-(4-((4-(4-(oxetan-3-yl)piperazin-1-yl)phenyl)amino)-1,3,5-triazin-2-yl)-2-(pyrrolidin-3-yloxy)benzonitrile], the IC50 at IKKε amounted to 120 nM; on hJAK2, 961 nM; at TBK1 it was 30 nM.

For the compound `N#Cc1cc(-c2ncnc(Nc3ccc(N4CCN(C5COC5)CC4)cc3)n2)ccc1O[C@@H]1CCN(C(=O)C2(O)CC2)C1` [Example 94, (R)-2-((1-(1-hydroxycyclopropanecarbonyl)pyrrolidin-3-yl)oxy)-5-(4-((4-(4-(oxetan-3-yl)piperazin-1-yl)phenyl)amino)-1,3,5-triazin-2-yl)benzonitrile], the half-inhibitory concentration (IC50) is 367 nM at IKKε, more than 1000 nM at hJAK2 and 173 nM on TBK1.

As to `N#Cc1cc(-c2ncnc(Nc3ccc(N4CCN(C5COC5)CC4)cc3)n2)ccc1O[C@@H]1CCN(C=O)C1` [Example 95, (R)-2-((1-formylpyrrolidin-3-yl)oxy)-5-(4-((4-(4-(oxetan-3-yl)piperazin-1-yl)phenyl)amino)-1,3,5-triazin-2-yl)benzonitrile], the IC50 at IKKε amounted to 21 nM; at hJAK2, 377 nM; against TBK1, 7 nM.
